# According to patent US20210378193A1, “HAPLOID EMBRYOGENESIS” (STICHTING WAGENINGEN RESEARCH, priority 2013, published 2021):
# Experiments:
# [1] = system: Brassica oleracea Gongylodes group (kohlrabi) microspores; test: embryo production in Brassica oleracea Gongylodes group (kohlrabi) microspore culture; assay type: cell-based
# Text: Microspores of different developmental stages were isolated by a standard method ([…] 1982, Journal of Plant Physiology 105:427-434).
# [2] = system: Capsicum annuum microspore cultures; test: Capsicum annuum microspore culture, embryogenic microspores and embryos per bud; assay type: cell-based; conditions: TSA during the first 20 hours
# Description: Microspore cultures were performed accordingto Kim M, Jang 1-C, Kim J-A, Park E-J, Yoon M, Lee Y (2008) “Embryogenesis and plant regeneration of hot pepper (Capsicum annuum L.) through isolated microspore culture”: Plant Cell Rep 27 (3):425-434. Flower buds containing vacuolate microspores were selected according to Parra-Vega V, Gonzalez-Garcia B, Segui-Simarro J M (2013) “Morphological markers to correlate bud and anther development with microsporogenesis and microgametogenesis in pepper (Capsicum annuum L.)”: Acta Physiol Plant 35 (2):627-633. Except for “Control” and “DMSO,” the microspores were exposed to TSA (diluted in DMSO) during the first 20 hours of culture.
# Cultures were performed according to Kim M, Jang 1-C, Kim J-A, Park E-J, Yoon M, Lee Y (2008) “Embryogenesis and plant regeneration of hot pepper (Capsicum annuum L.) through isolated microspore culture”; Plant Cell Rep 27 (3):425-434. Flower buds containing […] microspores were selected according to Parra-Vega V, Gonzalez-Garcia B, Segui-Simarro JM (2013) “Morphological markers to correlate bud and anther development with microsporogenesis and microgametogenesis in pepper (Capsicum annuum L.)”: Acta Physiol Plant 35 (2):627-633. Except for “Control” and “DMSO,” the microspores were exposed to TSA (diluted in DMSO) during the first 20 hours of culture.
# [3] = system: BABY BOOM (BBM); LEAFY COTYLEDON1 (LEC1); LEC2, and FUSCA3; test: semi-quantitative RT-PCR of embryo-expressed genes in B. napus microspore culture; assay type: cell-based, Brassica napus; conditions: TSA-treated microspore cultures, regardless of culture temperature
# Description: Total RNA isolation and on-column DNase digestion were performed using the InviTrap Spin Plant RNA Mini Kit (Invitek) according to the manufacturer's instructions. For semi-quantitative RT-PCR, 250 ng of total RNA was used for first-strand cDNA synthesis with the Taqman Reverse Transcription Reagents Kit (Applied Biosystems). The cycling parameters were: one cycle at 98° C. for 30 s, 30 cycles comprising 98° C. for 5 s, 60° C. for 30 s, followed by 72° C. for 1 min. The semi-quantitative RT-PCR primers are from Malik et al. (2007) Plant Physiol. 144: 134-154. The quantitative RT-PCR primers for microarray validation were designed based on oligonucleotide probes from Affymetrix GeneChip® Brassica Exon 1.0ST Array (see Malik et al. (2007) supra and Love, C. G., et al. (2010) PloS one 5: e12812). The Arabidopsis hda T-DNA insertion lines were genotyped using the PCR primers. […]
# The cell clusters that are formed in heat-stressed, TSA-treated cultures resemble those found in control cultures that are only exposed to a heat-stress treatment. […] Semi-quantitative RT-PCR and GFP reporter lines were used to determine whether the different types of sporophytic structures that develop in control and TSA-treated cultures are embryogenic. […]
# histone H3 and H4 = test: Western blot of protein and histone acetylation in B. napus microspore cultures; assay type: cell-based, Brassica napus
# Description: Freshly isolated microspores and microspores cultured for 8 hours under different experimental conditions were harvested by centrifugation. Proteins were extracted by boiling in SDS-sample buffer (30 μl per ml of culture) and electrophoresed in a Midget 12.5% SDS-PAGE gel under reducing conditions. After transfer of the proteins to PVDF membrane and blocking with 5% milk powder in PBS, 0.1% Tween 20, the blots were incubated for 2 hours with primary antibody (1:2000 dilution). The primary antibodies used in this study are as follows: anti-acetyl-Lysine (ICP0380; ImmuneChem Pharmaceuticals), anti-Histone H3 (ab1791; Abcam), anti-Histone H4 (clone 62-141-13; Millipore), and anti-acetyl-Histone H3 and anti-acetyl-Histone H4 (Millipore). Secondary goat anti-rabbit-HRP antibody (Sigma) was used in a 1:2000 dilution, and signals were detected by using enhanced chemiluminescence (SuperSignal West Femto Chemiluminescent Substrate, Pierce). An acetylated lysine antibody was used in combination with protein gel blotting to identify proteins whose acetylation status changes in 8-hour heat-stress plus TSA-treated B. napus microspore cultures compared to heat-stressed control cultures. […] Panels show: (A)=Western blot of total acetylated proteins in microspore cultures treated for eight hours with DMSO (control) or TSA—proteins in the range of 10-25 kDa are differentially acetylated after TSA treatment compared to the control; (B)=Western blot of total and acetylated (Ac) histone H3 and H4 in microspore cultures treated for eight hours with DMSO (control) or TSA. The percentages of sporophytic divisions in the different cultures at day 5 are shown under each sample. […] The acetylation status of histones H3 and H4 was determined during microspore culture using acetylated histone H3 (Ac-H3) and H4 (Ac-H4) antibodies. Microspore cultures were started from buds containing mostly binucleate pollen and placed for eight hours at either 18° C. or 33° C. with or without 0.5 μM TSA. […] (FIG. 8B).
smiles,measurement,setting,value
"CC(/C=C/C(=O)NO)=C\[C@@H](C)C(=O)c1ccc(N(C)C)cc1 [TSA, trichostatin A]","general embryo production, sum of experiments","[1]; 0.5 μM TSA, not heat-shocked (25° C.), control sum 204",841
same,large embryos in a recalcitrant (non-responsive) genotype,"[1]; 18 days, not in the control",Large embryos are present
same,embryogenic clusters in a recalcitrant (non-responsive) genotype,"[1]; early time point, not in the control culture",found at an early time point
same,number of embryogenic cells compared to the control,[2]; 10-day-old cultures,enhances
same,embryo yield (embryos per bud) compared to the control,[2]; 45-day-old cultures,enhances
same,"expression of BBM, LEC1, LEC2 and FUSCA3",[3],enhanced
same,total amount of histone H3 and H4,"histone H3 and H4; 0.5 μM TSA, eight hours",no clear effect
same,sporophytic divisions compared to untreated controls,"histone H3 and H4; 0.5 μM TSA, eight hours at 18° C. and 33° C., divisions at day 5",greatly enhanced
same,level of histone H3 and H4 acetylation relative to control,"histone H3 and H4; 0.5 μM TSA, eight hours, 18° C. and 33° C.",increased dramatically
same,acetylation of small molecular weight proteins in the range of 10-25 kDa,histone H3 and H4; 8-hour heat-stress plus TSA versus heat-stressed control,Increased protein acetylation
